These results are taken from patent US9295739B2, “Folate conjugates of albumin-binding entities” (MERCK & CIE, priority 2011, dated 2016).

For one data set, the system named is KB tumor xenografts. The data set is described as follows: Ex vivo biodistribution of [18F]FDG-AB-folate in nude mice bearing KB tumor xenografts. The note with it: 2 h p.i., n = 3. The method, then:
In vivo experiments were performed in female nude mice bearing KB tumor xenografts.
Animals were injected with ˜3 MBq of [^18F]FDG-AB-folate 34 via a lateral tail vein. Animals were sacrificed 2 h after radiotracer injection. Organs- and tissues were dissected and measured in the γ-counter (Wizard, PerkinElmer). The incorporated radioactivity was expressed as percentage injected dose (% ID) per gram of tissue.

Data set [1] is described as follows: log D7.4 by the shake flask method. The format is physicochemical.

Molecules are shown by their SMILES.

As to `Nc1nc2ncc(CNc3ccc(C(=O)N[C@@H](CCC(=O)NC(Cc4cn([C@@H]5OC(CO)[C@@H](O)[C@H](O)C5[18F])nn4)C(=O)N[C@@H](CCCCNC(=O)CCCc4ccc(I)cc4)C(=O)O)C(=O)O)cc3)nc2c(=O)[nH]1` (stereo partly shown) [[^18F]FDG-AB-folate], in the data set on KB tumor xenografts, the Blood came to 2.93 ± 0.55 % ID/g, the Bone is listed as 1.50 ± 0.24 % ID/g, the Brain amounted to 0.89 ± 0.17 % ID/g and the Feces was found to be 53.02 ± 26.52 % ID/g. In the data set on KB tumor xenografts, the Gallbladder stood at 83.78 ± 16.78 % ID/g, the Heart amounted to 3.20 ± 0.53 % ID/g, the Intestine stood at 8.84 ± 7.07 % ID/g and the Kidneys was 14.98 ± 1.47 % ID/g. In the data set on KB tumor xenografts, the Liver came out at 7.14 ± 0.78 % ID/g, the Lungs came to 2.44 ± 0.58 % ID/g, the Muscle was 1.62 ± 0.26 % ID/g and the “Ratio Tumor/Blood” value was found to be 3.33 ± 0.59. In the data set on KB tumor xenografts, the “Ratio Tumor/Kidneys” value worked out at 0.64 ± 0.07, the “Ratio Tumor/Liver” value worked out at 1.34 ± 0.16, the Salivary glands came to 7.55 ± 0.08 % ID/g and the Spleen turned out to be 0.81 ± 0.03 % ID/g. In the data set with KB tumor xenografts, this compound showed a Stomach of 1.93 ± 0.51 % ID/g and a Tumor of 9.51 ± 0.08 % ID/g. Besides, in data set [1], the “log D7.4 value” is on record as −3.2±0.4.
